From patent US20180320217A1, “METHODS FOR SAMPLING AND MEASURING ORAL LAVAGE PROTEINS” (The Procter & Gamble Company, priority 2017, published 2018)
Counter-ions that a name gives are not always drawn.

Legend:
diaphorase [1] = test: Formation of formazan dyes: NADH and diaphorase, absence of malate (TABLE 7); type: biochemical, Clostridium kluyveri; details: NADH and diaphorase, absence of malate
[2] = system: Malate dehydrogenase and diaphorase; test: Formation of formazan dyes: Malate dehydrogenase and diaphorase, absence of malate (TABLE 9); type: biochemical, pig heart
[3] = system: Malate dehydrogenase and diaphorase; test: Formation of formazan dyes: Malate dehydrogenase, diaphorase and malate (TABLE 10); type: biochemical, pig heart
oral lavage [4] = test: Formation of formazan dyes: oral lavage, malate and diaphorase (TABLE 12); type: biochemical, human; details: oral lavage, malate and diaphorase
diaphorase [5] = test: Formation of formazan dyes: only diaphorase, not malate (TABLE 13); type: biochemical, Clostridium kluyveri; details: mean of three experiments
diaphorase [6] = test: Formation of formazan dyes: only diaphorase and malate (TABLE 14); type: biochemical, Clostridium kluyveri; details: mean of three experiments
[7] = Formation of formazan dyes: NADH, malate and 1-methoxy PMS (TABLE 16); type: biochemical; details: NADH, malate and 1-methoxy PMS, mean of three experiments
oral lavage [8] = test: Formation of formazan dyes: oral lavage and 1-Methoxy PMS, absence of malate (TABLE 19); type: biochemical, human; details: oral lavage and 1-Methoxy PMS, absence of malate, mean of three experiments
oral lavage [9] = test: Formation of formazan dyes: oral lavage, malate and 1-Methoxy PMS (TABLE 20); type: biochemical, human; details: oral lavage, malate and 1-Methoxy PMS, mean of three experiments
[10] = Formation of formazan dyes: control buffer and 1-Methoxy PMS, absence of malate (TABLE 21); type: biochemical; details: for Absorbance, formation of formazan dyes (Means): control buffer and 1-Methoxy PMS, absence of malate, mean of three experiments
[11] = Formation of formazan dyes: control buffer, malate and 1-Methoxy PMS (TABLE 22); type: biochemical; details: control buffer, malate and 1-Methoxy PMS, mean of three experiments
Malate dehydrogenase = biological target: T1, Malate dehydrogenase (Sus scrofa, UniProt P00346); test: Formation of formazan dyes: Malate dehydrogenase and 1-Methoxy PMS, absence of malate (TABLE 17); type: biochemical, pig heart; parameters: L-malate dehydrogenase (pig heart); purchased Sigma-Aldrich 10127248001 / 10127914001; details: Malate dehydrogenase and 1-Methoxy PMS, absence of malate, mean of three experiments
T1 sequence (P00346 25-338): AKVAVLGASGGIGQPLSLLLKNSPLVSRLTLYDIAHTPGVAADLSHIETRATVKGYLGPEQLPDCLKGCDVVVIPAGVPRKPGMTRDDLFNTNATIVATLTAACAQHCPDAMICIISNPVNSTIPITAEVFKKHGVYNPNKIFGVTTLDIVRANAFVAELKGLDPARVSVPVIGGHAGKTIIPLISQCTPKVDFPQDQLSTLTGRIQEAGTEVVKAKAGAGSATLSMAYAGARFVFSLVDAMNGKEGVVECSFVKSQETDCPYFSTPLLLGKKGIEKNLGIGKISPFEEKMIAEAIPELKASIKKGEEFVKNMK

Compound: Cc1nc(-[n+]2nc(-c3cccc(OCC(=O)O)c3)nn2-c2ccc(S(=O)(=O)[O-])cc2)sc1C [MTS, 3-(4,5-dimethylthiazol-2-yl)-5-(3-carboxymethoxyphenyl)-2-(4-sulfophenyl)-2H-tetrazolium, inner salt]
- Formation of formazan dyes, absorbance, Means 0 h (diaphorase [1]; 0 h): 3.21
- Formation of formazan dyes, absorbance, Means 1 h (diaphorase [1]; 1 h): 3.24
- Formation of formazan dyes, absorbance, Means 2 h (diaphorase [1]; 2 h): 3.22
- Formation of formazan dyes, absorbance, Means 3 h (diaphorase [1]; 3 h): 3.20
- Formation of formazan dyes, absorbance, Means 4 h (diaphorase [1]; 4 h): 3.27
- Formation of formazan dyes, absorbance, Means 6 h (diaphorase [1]; 6 h): 3.29
- Formation of formazan dyes, absorbance, Means 8 h (diaphorase [1]; 8 h): 3.28
- Formation of formazan dyes, absorbance, Means 10 h (diaphorase [1]; 10 h): 3.28
- Formation of formazan dyes, absorbance, Means 12 h (diaphorase [1]; 12 h): 3.28
- Formation of formazan dyes, absorbance, Means 0 h ([2]; Malate dehydrogenase and diaphorase, absence of malate, 0 h): 0.17
- Formation of formazan dyes, absorbance, Means 1 h ([2]; Malate dehydrogenase and diaphorase, absence of malate, 1 h): 0.24
- Formation of formazan dyes, absorbance, Means 2 h ([2]; Malate dehydrogenase and diaphorase, absence of malate, 2 h): 0.22
- Formation of formazan dyes, absorbance, Means 3 h ([2]; Malate dehydrogenase and diaphorase, absence of malate, 3 h): 0.25
- Formation of formazan dyes, absorbance, Means 4 h ([2]; Malate dehydrogenase and diaphorase, absence of malate, 4 h): 0.21
- Formation of formazan dyes, absorbance, Means 6 h ([2]; Malate dehydrogenase and diaphorase, absence of malate, 6 h): 0.22
- Formation of formazan dyes, absorbance, Means 8 h ([2]; Malate dehydrogenase and diaphorase, absence of malate, 8 h): 0.23
- Formation of formazan dyes, absorbance, Means 10 h ([2]; Malate dehydrogenase and diaphorase, absence of malate, 10 h): 0.26
- Formation of formazan dyes, absorbance, Means 12 h ([2]; Malate dehydrogenase and diaphorase, absence of malate, 12 h): 0.25
- reduction of tetrazolium dye in the absence of substrate malate ([2]; malate dehydrogenase and diaphorase (TABLE 9)): remained largely in oxidized forms
- Formation of formazan dyes, absorbance, Means 0 h ([3]; Malate dehydrogenase, diaphorase and malate, 0 h): 1.72
- Formation of formazan dyes, absorbance, Means 1 h ([3]; Malate dehydrogenase, diaphorase and malate, 1 h): 2.67
- Formation of formazan dyes, absorbance, Means 2 h ([3]; Malate dehydrogenase, diaphorase and malate, 2 h): 2.93
- Formation of formazan dyes, absorbance, Means 3 h ([3]; Malate dehydrogenase, diaphorase and malate, 3 h): 3.12
- Formation of formazan dyes, absorbance, Means 4 h ([3]; Malate dehydrogenase, diaphorase and malate, 4 h): 3.48
- Formation of formazan dyes, absorbance, Means 6 h ([3]; Malate dehydrogenase, diaphorase and malate, 6 h): 3.67
- Formation of formazan dyes, absorbance, Means 8 h ([3]; Malate dehydrogenase, diaphorase and malate, 8 h): 3.73
- Formation of formazan dyes, absorbance, Means 10 h ([3]; Malate dehydrogenase, diaphorase and malate, 10 h): 3.74
- Formation of formazan dyes, absorbance, Means 12 h ([3]; Malate dehydrogenase, diaphorase and malate, 12 h): 3.71
- conversion to reduced formazan dyes ([3]; malate dehydrogenase, diaphorase and malate (TABLE 10)): converted to reduced formazan dyes in a time-dependent manner
- Formation of formazan dyes, absorbance, Means 0 h (oral lavage [4]; 0 h): 0.68
- Formation of formazan dyes, absorbance, Means 1 h (oral lavage [4]; 1 h): 0.93
- Formation of formazan dyes, absorbance, Means 2 h (oral lavage [4]; 2 h): 1.07
- Formation of formazan dyes, absorbance, Means 3 h (oral lavage [4]; 3 h): 1.14
- Formation of formazan dyes, absorbance, Means 4 h (oral lavage [4]; 4 h): 1.34
- Formation of formazan dyes, absorbance, Means 6 h (oral lavage [4]; 6 h): 1.56
- Formation of formazan dyes, absorbance, Means 8 h (oral lavage [4]; 8 h): 1.84
- Formation of formazan dyes, absorbance, Means 10 h (oral lavage [4]; 10 h): 2.10
- Formation of formazan dyes, absorbance, Means 12 h (oral lavage [4]; 12 h): 2.27
- Absorbance, formation of formazan dyes (Means) (diaphorase [5]; 0 h): 0.16
- Absorbance, formation of formazan dyes (Means) (diaphorase [5]; 1 h): 0.25
- Absorbance, formation of formazan dyes (Means) (diaphorase [5]; 2 h): 0.26
- Absorbance, formation of formazan dyes (Means) (diaphorase [5]; 3 h): 0.22
- Absorbance, formation of formazan dyes (Means) (diaphorase [5]; 4 h): 0.17
- Absorbance, formation of formazan dyes (Means) (diaphorase [5]; 6 h): 0.20
- Absorbance, formation of formazan dyes (Means) (diaphorase [5]; 8 h): 0.16
- Absorbance, formation of formazan dyes (Means) (diaphorase [5]; 10 h): 0.13
- Absorbance, formation of formazan dyes (Means) (diaphorase [5]; 12 h): 0.14
- Absorbance, formation of formazan dyes (Means) (diaphorase [6]; 0 h): 0.16
- Absorbance, formation of formazan dyes (Means) (diaphorase [6]; 1 h): 0.22
- Absorbance, formation of formazan dyes (Means) (diaphorase [6]; 2 h): 0.27
- Absorbance, formation of formazan dyes (Means) (diaphorase [6]; 3 h): 0.32
- Absorbance, formation of formazan dyes (Means) (diaphorase [6]; 4 h): 0.46
- Absorbance, formation of formazan dyes (Means) (diaphorase [6]; 6 h): 0.57
- Absorbance, formation of formazan dyes (Means) (diaphorase [6]; 8 h): 0.68
- Absorbance, formation of formazan dyes (Means) (diaphorase [6]; 10 h): 0.79
- Absorbance, formation of formazan dyes (Means) (diaphorase [6]; 12 h): 0.93
- Absorbance, formation of formazan dyes (Means) ([7]; 0 h): 2.33
- Absorbance, formation of formazan dyes (Means) ([7]; 1 h): 2.41
- Absorbance, formation of formazan dyes (Means) ([7]; 2 h): 2.44
- Absorbance, formation of formazan dyes (Means) ([7]; 3 h): 2.47
- Absorbance, formation of formazan dyes (Means) ([7]; 4 h): 2.27
- Absorbance, formation of formazan dyes (Means) ([7]; 6 h): 2.38
- Absorbance, formation of formazan dyes (Means) ([7]; 8 h): 2.41
- Absorbance, formation of formazan dyes (Means) ([7]; 10 h): 2.45
- Absorbance, formation of formazan dyes (Means) ([7]; 12 h): 2.40
- Absorbance, formation of formazan dyes (Means) (oral lavage [8]; 0 h): 0.87
- Absorbance, formation of formazan dyes (Means) (oral lavage [8]; 1 h): 1.50
- Absorbance, formation of formazan dyes (Means) (oral lavage [8]; 2 h): 1.82
- Absorbance, formation of formazan dyes (Means) (oral lavage [8]; 3 h): 2.08
- Absorbance, formation of formazan dyes (Means) (oral lavage [8]; 4 h): 1.94
- Absorbance, formation of formazan dyes (Means) (oral lavage [8]; 6 h): 2.32
- Absorbance, formation of formazan dyes (Means) (oral lavage [8]; 8 h): 2.51
- Absorbance, formation of formazan dyes (Means) (oral lavage [8]; 10 h): 2.66
- Absorbance, formation of formazan dyes (Means) (oral lavage [8]; 12 h): 2.74
- Absorbance, formation of formazan dyes (Means) (oral lavage [9]; 0 h): 0.78
- Absorbance, formation of formazan dyes (Means) (oral lavage [9]; 1 h): 1.33
- Absorbance, formation of formazan dyes (Means) (oral lavage [9]; 2 h): 1.69
- Absorbance, formation of formazan dyes (Means) (oral lavage [9]; 3 h): 1.90
- Absorbance, formation of formazan dyes (Means) (oral lavage [9]; 4 h): 1.87
- Absorbance, formation of formazan dyes (Means) (oral lavage [9]; 6 h): 2.27
- Absorbance, formation of formazan dyes (Means) (oral lavage [9]; 8 h): 2.60
- Absorbance, formation of formazan dyes (Means) (oral lavage [9]; 10 h): 2.89
- Absorbance, formation of formazan dyes (Means) (oral lavage [9]; 12 h): 3.22
- Absorbance, formation of formazan dyes (Means) ([10]; 0 h): 0.36
- Absorbance, formation of formazan dyes (Means) ([10]; 1 h): 0.42
- Absorbance, formation of formazan dyes (Means) ([10]; 2 h): 0.41
- Absorbance, formation of formazan dyes (Means) ([10]; 3 h): 0.43
- Absorbance, formation of formazan dyes (Means) ([10]; 4 h): 0.43
- Absorbance, formation of formazan dyes (Means) ([10]; 6 h): 0.48
- Absorbance, formation of formazan dyes (Means) ([10]; 8 h): 0.59
- Absorbance, formation of formazan dyes (Means) ([10]; 10 h): 0.63
- Absorbance, formation of formazan dyes (Means) ([10]; 12 h): 0.66
- conversion into colored formazan dyes in assay buffer containing 1-methoxy PMS ([10]; control buffer, absence of malate (TABLE 21) or presence of malate (TABLE 22)): slowly catalyze the conversion of tetrazolium salts into colored formazan dyes
- Means absorbance 0 h ([11]; 0 h): 0.20
- Means absorbance 1 h ([11]; 1 h): 0.20
- Means absorbance 2 h ([11]; 2 h): 0.21
- Means absorbance 3 h ([11]; 3 h): 0.23
- Means absorbance 4 h ([11]; 4 h): 0.25
- Means absorbance 6 h ([11]; 6 h): 0.33
- Means absorbance 8 h ([11]; 8 h): 0.36
- Means absorbance 10 h ([11]; 10 h): 0.47
- Means absorbance 12 h ([11]; 12 h): 0.50
- Absorbance, formation of formazan dyes (Means) (Malate dehydrogenase; 0 h): 0.34
- Absorbance, formation of formazan dyes (Means) (Malate dehydrogenase; 1 h): 0.36
- Absorbance, formation of formazan dyes (Means) (Malate dehydrogenase; 2 h): 0.33
- Absorbance, formation of formazan dyes (Means) (Malate dehydrogenase; 3 h): 0.33
- Absorbance, formation of formazan dyes (Means) (Malate dehydrogenase; 4 h): 0.41
- Absorbance, formation of formazan dyes (Means) (Malate dehydrogenase; 6 h): 0.48
- Absorbance, formation of formazan dyes (Means) (Malate dehydrogenase; 8 h): 0.48
- Absorbance, formation of formazan dyes (Means) (Malate dehydrogenase; 10 h): 0.52
- Absorbance, formation of formazan dyes (Means) (Malate dehydrogenase; 12 h): 0.51
